Key:
Homo sapiens = species: Homo sapiens; experiment: Selectivity ratio of IC50 for inhibition of recombinant human GST-tagged EGFR expressed in baculovirus expression system to IC50 for inhibition of recombinant human GST-tagged EGFR T790M/L858R double mutant (668 to 1210 residues) expressed in baculovirus expression system
NCI-H1975 [1] = experiment: Induction of apoptosis in human NCI-H1975 cells harboring EGFR T790M/L858R mutant assessed as necrotic cells at 1 nM measured after 72 hrs by Annexin-V-FITC/propidium iodide staining based flow cytometry (reference value: 0.49%); type: functional
[2] = Half life in Sprague-Dawley rat at 10 mg/kg, po administered as single dose; type: ADME, organism-based; conditions: in vivo
NCI-H1975 [3] = experiment: Induction of apoptosis in human NCI-H1975 cells harboring EGFR T790M/L858R mutant assessed as necrotic cells at 10 nM measured after 72 hrs by Annexin-V-FITC/propidium iodide staining based flow cytometry (reference value: 0.49%); type: functional
HK-2 = experiment: Cytotoxicity against HK-2 cells assessed as reduction in cell viability by MTT assay; type: cell-based; conditions: Homo sapiens
NCI-H292 = experiment: Antiproliferative activity against human NCI-H292 cells harboring wild-type EGFR by MTT assay; type: functional, cell-based
PC-9 = experiment: Antiproliferative activity against human PC-9 cells harboring EGFR L858R mutant by MTT assay; type: functional, cell-based
NCI-H1975 [4] = experiment: Induction of apoptosis in human NCI-H1975 cells harboring EGFR T790M/L858R mutant assessed as late apoptotic cells at 1 nM measured after 48 hrs by Annexin-V-FITC/propidium iodide staining based flow cytometry (reference value: 0.04%); type: functional
NCI-H1975 [5] = experiment: Induction of apoptosis in human NCI-H1975 cells harboring EGFR T790M/L858R mutant assessed as early apoptotic cells at 1 nM measured after 72 hrs by Annexin-V-FITC/propidium iodide staining based flow cytometry (reference value: 0.72%); type: functional
NCI-H1975 [6] = experiment: Induction of apoptosis in human NCI-H1975 cells harboring EGFR T790M/L858R mutant assessed as early apoptotic cells at 5 nM measured after 48 hrs by Annexin-V-FITC/propidium iodide staining based flow cytometry (reference value: 0.82%); type: functional
[7] = Clearance in Sprague-Dawley rat at 2 mg/kg, iv administered as single dose; type: ADME, organism-based; conditions: in vivo
NCI-H1975 [8] = experiment: Induction of apoptosis in human NCI-H1975 cells harboring EGFR T790M/L858R mutant assessed as early apoptotic cells at 10 nM measured after 48 hrs by Annexin-V-FITC/propidium iodide staining based flow cytometry (reference value: 0.82%); type: functional
NCI-H1975 [9] = experiment: Antitumor activity against human NCI-H1975 cells harboring EGFR T790M/L858R mutant xenografted in nude mouse assessed as tumor volume at 15 mg/kg, po administered once daily for 7 days (reference value: 843 mm3); type: functional; conditions: time 7 day
[10] = AUC (0 to t) in Sprague-Dawley rat at 10 mg/kg, po administered as single dose; type: ADME, organism-based; design: dose 10 mg/kg; conditions: in vivo
NCI-H1975 [11] = experiment: Antimigratory activity against human NCI-H1975 cells harboring EGFR T790M/L858R mutant assessed as inhibition of cell migration at 9 nM measured after 48 hrs by phase contrast microscopic analysis relative to control; type: functional
[12] = Toxicity in nude mouse xenografted with human NCI-H1975 cells harboring EGFR T790M/L858R mutant assessed as mortality at 15 mg/kg, po administered once daily for 7 days relative to control; type: organism-based; conditions: in vivo, time 7 day, read-out: Activity
NCI-H1975 [13] = experiment: Induction of mitochondrial membrane potential loss in human NCI-H1975 cells harboring EGFR T790M/L858R mutant assessed as cells with intact mitochondrial membrane potential at 10 nM measured after 24 hrs by JC1 staining based fluorescence microscopic analysis (reference value: 94.51%); type: functional
[14] = Tmax in Sprague-Dawley rat at 10 mg/kg, po administered as single dose; type: ADME, organism-based; conditions: in vivo
NCI-H1975 [15] = experiment: Antimigratory activity against human NCI-H1975 cells harboring EGFR T790M/L858R mutant assessed as inhibition of cell migration at 3 nM measured after 48 hrs by phase contrast microscopic analysis relative to control; type: functional
[16] = Cytotoxicity against HEK293-A cells assessed as reduction in cell viability by MTT assay; type: cell-based; conditions: Homo sapiens
[17] = Selectivity ratio of IC50 for human L02 cells to IC50 for antiproliferative activity against human NCI-H1975 cells; type: toxicity, cell-based; conditions: L02 cells versus NCI-H1975 cells, read-out: Ratio IC50
NCI-H1975 [18] = experiment: Induction of apoptosis in human NCI-H1975 cells harboring EGFR T790M/L858R mutant assessed as early apoptotic cells at 5 nM measured after 72 hrs by Annexin-V-FITC/propidium iodide staining based flow cytometry (reference value: 0.72%); type: functional
NCI-H1975 [19] = experiment: Induction of apoptosis in human NCI-H1975 cells harboring EGFR T790M/L858R mutant assessed as necrotic cells at 5 nM measured after 72 hrs by Annexin-V-FITC/propidium iodide staining based flow cytometry (reference value: 0.49%); type: functional
NCI-H1975 [20] = experiment: Induction of apoptosis in human NCI-H1975 cells harboring EGFR T790M/L858R mutant assessed as viable cells at 10 nM measured after 72 hrs by Annexin-V-FITC/propidium iodide staining based flow cytometry (reference value: 98.66%); type: functional; conditions: read-out: Activity
NCI-H1975 [21] = experiment: Induction of mitochondrial membrane potential loss in human NCI-H1975 cells harboring EGFR T790M/L858R mutant assessed as cell population with mitochondrial membrane potential collapse at 5 nM measured after 24 hrs by JC1 staining based fluorescence microscopic analysis (reference value: 5.49%); type: functional
NCI-H1975 [22] = experiment: Induction of mitochondrial membrane potential loss in human NCI-H1975 cells harboring EGFR T790M/L858R mutant assessed as cell population with mitochondrial membrane potential collapse at 10 nM measured after 24 hrs by JC1 staining based fluorescence microscopic analysis (reference value: 5.49%); type: functional
NCI-H1975 [23] = experiment: Induction of apoptosis in human NCI-H1975 cells harboring EGFR T790M/L858R mutant assessed as viable cells at 1 nM measured after 72 hrs by Annexin-V-FITC/propidium iodide staining based flow cytometry (reference value: 98.66%); type: functional; conditions: read-out: Activity
[24] = Cmax in Sprague-Dawley rat at 10 mg/kg, po administered as single dose; type: ADME, organism-based; design: route oral, dose 10 mg/kg; conditions: in vivo
NCI-H1975 [25] = experiment: Antitumor activity against human NCI-H1975 cells harboring EGFR T790M/L858R mutant xenografted in nude mouse assessed as tumor growth inhibition at 15 mg/kg, po administered once daily for 7 days relative to control; type: functional; conditions: Mus musculus, NCI-H1975, po, 168 h, time 7 day, read-out: TGI
NCI-H1975 [26] = experiment: Antiproliferative activity against human NCI-H1975 cells harboring EGFR T790M/L858R mutant by MTT assay; type: functional, cell-based
NCI-H1975 [27] = experiment: Induction of apoptosis in human NCI-H1975 cells harboring EGFR T790M/L858R mutant assessed as viable cells at 5 nM measured after 48 hrs by Annexin-V-FITC/propidium iodide staining based flow cytometry (reference value: 98.63%); type: functional; conditions: read-out: Activity
[28] = AUC (0 to t) in Sprague-Dawley rat at 2 mg/kg, iv administered as single dose; type: ADME, organism-based; design: dose 2 mg/kg; conditions: in vivo

`C=CC(=O)Nc1cc(Nc2nccc(-c3cn(C4CC4)c4ccccc34)n2)c(OC)cc1[S+]([O-])CCN(C)C` (configuration not stated) gave a Ratio IC50 (Homo sapiens) of 15.8, an Activity (NCI-H1975 [1]) of 9.52% and a half-life [2] of 2.51 h. It also gave an Activity (NCI-H1975 [3]) of 5.38%, an IC50 (HK-2) of 5860 nM and an IC50 (NCI-H292) of 718 nM. The IC50 (PC-9) was 4 nM, the Activity (NCI-H1975 [4]) was 1.64% and the Activity (NCI-H1975 [5]) was 17.25%. The Activity (NCI-H1975 [6]) was 21.73%, the clearance [7] was 98.1 mL/min/kg and the Activity (NCI-H1975 [8]) was 15.92%. For the same compound, the Activity (NCI-H1975 [9]) was 56 mm3, the AUC(0-t) [10] was 676 ng·h/mL and the inhibition at 0.009 µM (NCI-H1975 [11]) was 74%. The mortality at 168 h [12] was < 5%, the Activity (NCI-H1975 [13]) was 59.69% and the Tmax [14] was 1.67 h. The inhibition at 0.003 µM (NCI-H1975 [15]) was 53%, the IC50 [16] was 3060 nM and the selectivity ratio [17] was 584. For the same compound, the Activity (NCI-H1975 [18]) was 19.59%, the Activity (NCI-H1975 [19]) was 10.51% and the viability at 0.01 µM (NCI-H1975 [20]) was 27.4%. For the same compound, the Activity (NCI-H1975 [21]) was 26.9%, the Activity (NCI-H1975 [22]) was 40.31% and the viability at 0.001 µM (NCI-H1975 [23]) was 70.3%. For the same compound, the Cmax [24] was 203 ng/mL, the inhibition in vivo at 15 mg/kg (NCI-H1975 [25]) was 93.3% and the IC50 (NCI-H1975 [26]) was 8 nM. The viability at 0.005 µM (NCI-H1975 [27]) was 68.2% and the AUC(0-t) [28] was 335 ng·h/mL.

From ChEMBL document CHEMBL4706659, “Design, synthesis and biological evaluation of novel 2,4-diaryl pyrimidine derivatives as selective EGFR inhibitors” (Eur J Med Chem, 2021)
